Data on five compounds can be found in patent EP0021836A1, “Clavulanic acid derivatives, process for their preparation and pharmaceutical compositions containing them” (BEECHAM GROUP PLC, priority 1979, dated 1981).

“And” between values parts separate entries of the source, which are not always exact repeats. Equal entries are not always repeated. A value given as a limit tells only on which side of the number the result lay.

The test system of one experiment is Staph Russell. Description: standard MIC test (synergistic and antibacterial properties). The class given is cell-based. As to conditions: substance alone, in µg/mL (unit assumed).
The test system of the next experiment is E.coli JT39. Described as above. Format: cell-based. The settings on record: substance alone, unit assumed.
The test system of a further experiment is Kleb E70. Described as above. The class given is cell-based. The settings on record: substance alone; Kleb E70 (printed Kleb Eto in the 1st table); unit assumed.
In another experiment the test system is E. coli strain E96. The experiment in a line: in-vivo subcutaneous synergistic activity with amoxycillin against intraperitoneal infection in mice. As to conditions: Escherichia coli, sc, amoxycillin alone, read-out: CD50 (the source's name).
The subject of a further experiment is E. coli strain E124. The experiment is described as above. The settings on record: Escherichia coli, sc, amoxycillin alone, read-out: CD50 (the source's name).

As for `CC(C)NCC=C1OC2CC(=O)N2C1C(=O)O` (stereo not shown) [Example 1, 9-N-Isopropylaminodeoxyclavulanic acid], the MIC in the experiment on Staph Russell was determined as 8; in the experiment with E.coli JT39, 31.2 mg/L; with Kleb E70, 500 mg/L.
Taken in the same sequence, the figures for `O=C(O)C1C(=CCNC2CCCC2)OC2CC(=O)N21` (stereo not shown) [Example 2, 9-N-Cyclopentylaminodeoxyclavulanic acid] were 16, 31.2 mg/L and above 500 mg/L.
Taken in the same sequence, the figures for `O=C(O)C1C(=CCNC2CCCCC2)OC2CC(=O)N21` (stereo not shown) [Example 3, 9-N-Cyclohexylaminodeoxyclavulanic acid] were 8.0, 62.5 mg/L and 500 mg/L.
`O=C(O)[C@H]1/C(=C/CO)O[C@@H]2CC(=O)N21` [Clavulanic acid]: the MIC with Staph Russell was 16 and 31.2; with E.coli JT39, 16 mg/L.
As for `CC1(C)S[C@@H]2[C@H](NC(=O)[C@H](N)c3ccc(O)cc3)C(=O)N2[C@H]1C(=O)O` [Amoxycillin], the ED50 with E. coli strain E96 and with E. coli strain E124 was above 1000 mg/kg throughout.
